The record followed here is PubChem BioAssay AID1259407 (Chemical Carcinogenesis Research Information System (CCRIS), 2018).

This data set concerns CCRIS mutagenicity, Ames/micronucleus/aberration tests. The experiment in a line: CCRIS mutagenicity studies.
The mark [1] stands for this setting: Test System: AMES SALMONELLA TYPHIMURIUM, Strain/Indicator: TA98, Metabolic Activation: NONE, Method: STANDARD PLATE.
Setting [2] is: Test System: AMES SALMONELLA TYPHIMURIUM, Strain/Indicator: TA98, Metabolic Activation: RAT, LIVER, S-9, AROCLOR 1254, Method: STANDARD PLATE.
Where [3] appears, read: Test System: AMES SALMONELLA TYPHIMURIUM, Strain/Indicator: TA100, Metabolic Activation: NONE, Method: STANDARD PLATE.
Setting [4] is: Test System: AMES SALMONELLA TYPHIMURIUM, Strain/Indicator: TA100, Metabolic Activation: RAT, LIVER, S-9, AROCLOR 1254, Method: STANDARD PLATE.
[5] abbreviates: Test System: Mouse lymphoma, Strain/Indicator: L5178Y (tk+/tk-), Metabolic Activation: Rat, Liver, S-9, Aroclor 1254, Method: Suspension/plate.

Calls of active or inactive are those of the source. No rule for the calls is given here.

For the compound `c1ccc2c(c1)ccc1c3ccccc3ccc21`, the mutagenic call reads like this: (Test System: AMES SALMONELLA TYPHIMURIUM, Strain/Indicator: TA97, Metabolic Activation: NONE, Method: STANDARD PLATE) “inactive; negative”; (Test System: AMES SALMONELLA TYPHIMURIUM, Strain/Indicator: TA97, Metabolic Activation: RAT, LIVER, S-9, PCB, Method: STANDARD PLATE) “active; positive”; under setting [1], “inactive; negative”; under setting [2], “active; positive”; (Test System: AMES SALMONELLA TYPHIMURIUM, Strain/Indicator: TA98, Metabolic Activation: RAT, LIVER, S-9, PCB, Method: STANDARD PLATE) “active; positive”; under setting [3], “inactive; negative”. Also, the mutagenic call is, setting by setting: (Test System: AMES SALMONELLA TYPHIMURIUM, Strain/Indicator: TA100, Metabolic Activation: POOLED HUMAN LIVER MICROSOMES, Method: PREINCUBATION) “inactive; negative”; (Test System: AMES SALMONELLA TYPHIMURIUM, Strain/Indicator: TA100, Metabolic Activation: RAT, LIVER, MICROSOMES, AROCLOR 1254, Method: STANDARD PLATE) “active; positive”; (Test System: AMES SALMONELLA TYPHIMURIUM, Strain/Indicator: TA100, Metabolic Activation: RAT, LIVER, MICROSOMES, CHRYSENE, Method: STANDARD PLATE) “inactive; negative”; (Test System: AMES SALMONELLA TYPHIMURIUM, Strain/Indicator: TA100, Metabolic Activation: RAT, LIVER, MICROSOMES, Method: STANDARD PLATE) “inactive; negative”; under setting [4], “active; positive”; (Test System: AMES SALMONELLA TYPHIMURIUM, Strain/Indicator: TA100, Metabolic Activation: RAT, LIVER, S-9, PCB, Method: STANDARD PLATE) “active; positive”. Further, the mutagenic call by setting is: (Test System: AMES SALMONELLA TYPHIMURIUM, Strain/Indicator: TA100, Metabolic Activation: RAT, LIVER, S-9, PHENOBARBITAL AND 5,6-BENZOFLAVONE, Method: PREINCUBATION) “active; positive”; (Test System: CHINESE HAMSTER OVARY, Strain/Indicator: CHO-K1-BH4 (HGPRT)/6-THIOGUANINE, Metabolic Activation: NONE, Method: STANDARD PLATE) “inactive; negative”; (Test System: CHINESE HAMSTER OVARY, Strain/Indicator: CHO-K1-BH4 (HGPRT)/6-THIOGUANINE, Metabolic Activation: RAT, LIVER, S-9, AROCLOR 1254, Method: STANDARD PLATE) “active; positive”; (Test System: CHINESE HAMSTER OVARY, Strain/Indicator: CHO-UV5 (HGPRT)/6-THIOGUANINE, Metabolic Activation: NONE, Method: STANDARD PLATE) “inactive; negative”; (Test System: CHINESE HAMSTER OVARY, Strain/Indicator: CHO-UV5 (HGPRT)/6-THIOGUANINE, Metabolic Activation: RAT, LIVER, S-9, AROCLOR 1254, Method: STANDARD PLATE) “active; positive”; (Test System: LACZ TRANSGENIC MOUSE (MUTATM MOUSE), Strain/Indicator: LACZ MUTANT FREQUENCY, Method: LIVER, SPLEEN, LUNG, KIDNEY, BONE MARROW, COLON HARVESTED 7 D AFTER LAST DOSE, DNA ISOLATED) “active; positive; g:c to t:a transversions in all organs”.

For `CC/C=C\C#N`, the mutagenic call (Test System: MOUSE LYMPHOMA, Strain/Indicator: L5178Y (TK+/TK-), Metabolic Activation: NONE, Method: SUSPENSION/PLATE) is “active; positive. reevaluation of results: positive” and the mutagenic call under setting [5] is “active; positive”.

Take `C=CC(=O)OCC(CC)(COC(=O)C=C)COC(=O)C=C`: the mutagenic call is, setting by setting: (End Point: In vivo micronucleus, Test System: Peripheral blood normochromatic erythrocytes, Species: Mouse, Strain/Sex: B6C3F1/Female, Route: Dermal) “inactive; negative”; (End Point: In vivo micronucleus, Test System: Peripheral blood normochromatic erythrocytes, Species: Mouse, Strain/Sex: B6C3F1/Male, Route: Dermal) “inactive; negative”; (End Point: In vivo micronucleus, Test System: Peripheral blood normochromatic erythrocytes, Species: Mouse, Strain/Sex: FVB.N/TgN (v-Ha-ras) Tg.AC hemizygous/Female, Route: Dermal) “inactive; negative, purity 80%”; (End Point: In vivo micronucleus, Test System: Peripheral blood normochromatic erythrocytes, Species: Mouse, Strain/Sex: FVB.N/TgN (v-Ha-ras) Tg.AC hemizygous/Male, Route: Dermal) “inactive; negative”; (Test System: AMES SALMONELLA TYPHIMURIUM, Strain/Indicator: TA98, Metabolic Activation: HAMSTER, LIVER, S-9, AROCLOR 1254, Method: STANDARD PLATE) “inactive; negative”; under setting [1], “inactive; negative”. Further, the mutagenic call reads like this: under setting [2], “inactive; negative”; (Test System: AMES SALMONELLA TYPHIMURIUM, Strain/Indicator: TA100, Metabolic Activation: HAMSTER, LIVER, S-9, AROCLOR 1254, Method: STANDARD PLATE) “inactive; negative”; under setting [3], “inactive; negative”; under setting [4], “inactive; negative”; (Test System: AMES SALMONELLA TYPHIMURIUM, Strain/Indicator: TA1535, Metabolic Activation: HAMSTER, LIVER, S-9, AROCLOR 1254 (5-20%), Method: STANDARD PLATE) “active; positive”; (Test System: AMES SALMONELLA TYPHIMURIUM, Strain/Indicator: TA1535, Metabolic Activation: HAMSTER, LIVER, S-9, AROCLOR 1254, Method: STANDARD PLATE) “active; positive”. Moreover, the mutagenic call (Test System: AMES SALMONELLA TYPHIMURIUM, Strain/Indicator: TA1535, Metabolic Activation: NONE, Method: STANDARD PLATE) is “inactive; negative”; the mutagenic call (Test System: AMES SALMONELLA TYPHIMURIUM, Strain/Indicator: TA1537, Metabolic Activation: HAMSTER, LIVER, S-9, AROCLOR 1254, Method: STANDARD PLATE) was “inactive; negative”; the mutagenic call (Test System: AMES SALMONELLA TYPHIMURIUM, Strain/Indicator: TA1537, Metabolic Activation: NONE, Method: STANDARD PLATE) was “inactive; negative”; the mutagenic call (Test System: AMES SALMONELLA TYPHIMURIUM, Strain/Indicator: TA1537, Metabolic Activation: RAT, LIVER, S-9, AROCLOR 1254, Method: STANDARD PLATE) is “inactive; negative”; the mutagenic call (Test System: CHINESE HAMSTER OVARY, Strain/Indicator: CHO-K1-BH4 (HGPRT)/6-THIOGUANINE, Metabolic Activation: NONE, Method: SUSPENSION/PLATE) is “inactive; negative”; the mutagenic call (Test System: CHINESE HAMSTER OVARY, Strain/Indicator: CHO-K1-BH4 (HGPRT), Metabolic Activation: NONE) is “active; positive”. Further, the mutagenic call reads like this: (Test System: CHINESE HAMSTER OVARY, Strain/Indicator: CHO-K1-BH4 (HGPRT), Metabolic Activation: NONE, Method: MONOLAYER) “inactive; negative”; (Test System: CHINESE HAMSTER OVARY, Strain/Indicator: CHO-K1-BH4 (HGPRT), Metabolic Activation: NONE, Method: SUSPENSION/PLATE) “active; positive”; (Test System: MOUSE LYMPHOMA, Strain/Indicator: L5178Y (TK+/TK-), Metabolic Activation: RAT, LIVER, S-9, AROCLOR 1254, Method: SUSPENSION/PLATE) “inactive; negative”; (Test System: Mouse lymphoma, Strain/Indicator: L5178Y (tk+/tk-), Metabolic Activation: None, Method: Suspension/plate) “active; positive”; under setting [5], “active; positive”.
